Results from PubChem BioAssay (NCI).
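Cultured in 96-well plates, cells were exposed to test compound for 48 hours across five concentrations. GI50 = concentration required for 50% inhibition of growth. The concentration for full growth arrest is given as TGI.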

Columns and labels:
Experiment in all cases: DTP human tumour cell line panel, 48 h
[1] = tested on: LOX IMVI melanoma
[2] = tested on: HL-60(TB) leukemia
[3] = tested on: CCRF-CEM leukemia
[4] = tested on: SF-295 CNS
[5] = tested on: OVCAR-5 ovarian
[6] = tested on: NCI-H522 lung
[7] = tested on: SN12C renal
[8] = tested on: IGROV1 ovarian
[9] = tested on: U251 CNS
[10] = tested on: HCT-116 colon
[11] = tested on: EKVX NSCLC
[12] = tested on: COLO 205 colon
[13] = tested on: TK-10 renal
[14] = tested on: NCI-H23 lung
[15] = tested on: T-47D breast
[16] = tested on: NCI/ADR-RES ovarian
[17] = tested on: NCI-H226 lung
[18] = tested on: DU-145 prostate
[19] = tested on: HT29 colon
[20] = tested on: NCI-H460 lung
[21] = tested on: SF-268 CNS
[22] = tested on: UO-31 renal
[23] = tested on: A549 NSCLC
[24] = tested on: SK-OV-3 ovarian
[25] = tested on: ACHN renal
[26] = tested on: OVCAR-4 ovarian
[27] = tested on: SK-MEL-5 melanoma
[28] = tested on: MCF7 breast
[29] = tested on: SW-620 colon
[30] = tested on: M14 melanoma
[31] = tested on: A498 renal
[32] = tested on: 786-0 renal
[33] = tested on: K-562 leukemia
[34] = tested on: OVCAR-3 ovarian
[35] = tested on: SK-MEL-28 melanoma
[36] = tested on: SNB-19 CNS
[37] = tested on: HCC-2998 colon
[38] = tested on: MDA-MB-231 breast
[39] = tested on: RPMI-8226 leukemia
[40] = tested on: CAKI-1 renal
[41] = tested on: SK-MEL-2 melanoma
[42] = tested on: SNB-75 CNS
[43] = tested on: OVCAR-8 ovarian
[44] = tested on: HOP-92 NSCLC
[45] = tested on: MOLT-4 leukemia
[46] = tested on: PC-3 prostate
[47] = tested on: MALME-3M melanoma
[48] = tested on: MDA-MB-435
[49] = tested on: RXF 393 renal
[50] = tested on: UACC-62 melanoma
[51] = tested on: KM12 colon
[52] = tested on: HOP-62 NSCLC
[53] = tested on: SF-539 CNS
[54] = tested on: HS 578T breast
[55] = tested on: BT-549 breast
[56] = tested on: HCT-15 colon

Q: With CCn1c(SCc2ccc(C)cc2)nnc1-c1nn(-c2ccc(Cl)cc2Cl)c(-c2ccc(Cl)cc2)c1C as the compound, how does the GI50 [1] read?
A: Its GI50 is 2.72 µM.

Q: And the TGI [1]?
A: Its TGI is 10.7 µM.

Q: What about the GI50 [2] of the same compound?
A: Its GI50 is 1.6 µM.

Q: What about the TGI [2] of the same compound?
A: The TGI was 5.47 µM.

Q: What about the GI50 [3] of the same compound?
A: The GI50 was 2.51 µM.

Q: What about the TGI [3] of the same compound?
A: The TGI was 13.5 µM.

Q: And the GI50 [4]?
A: Its GI50 is 2.4 µM.

Q: What about the TGI [4] of the same compound?
A: Its TGI is 11.7 µM.

Q: What about the GI50 [5] of the same compound?
A: Its GI50 is 3.54 µM.

Q: What about the TGI [5] of the same compound?
A: Its TGI is 15.2 µM.

Q: What about the GI50 [6] of the same compound?
A: The GI50 was 1.35 µM.

Q: What about the TGI [6] of the same compound?
A: Its TGI is 5.2 µM.

Q: What about the GI50 [7] of the same compound?
A: Its GI50 is 2.31 µM.

Q: What about the TGI [7] of the same compound?
A: Its TGI is 10.8 µM.

Q: What about the GI50 [8] of the same compound?
A: Its GI50 is 2.62 µM.

Q: What about the TGI [8] of the same compound?
A: Its TGI is 15.4 µM.

Q: And the GI50 [9]?
A: The GI50 was 0.925 µM.

Q: And the TGI [9]?
A: Its TGI is 11.8 µM.

Q: What about the GI50 [10] of the same compound?
A: The GI50 was 0.573 µM.

Q: What about the TGI [10] of the same compound?
A: Its TGI is 10.6 µM.

Q: What about the GI50 [11] of the same compound?
A: The GI50 was 2.88 µM.

Q: What about the TGI [11] of the same compound?
A: Its TGI is 13 µM.

Q: And the GI50 [12]?
A: The GI50 was 1.51 µM.

Q: And the TGI [12]?
A: Its TGI is 3.39 µM.

Q: And the GI50 [13]?
A: Its GI50 is 2.61 µM.

Q: What about the TGI [13] of the same compound?
A: The TGI was 10.9 µM.

Q: What about the GI50 [14] of the same compound?
A: The GI50 was 2.24 µM.

Q: And the TGI [14]?
A: The TGI was 12.5 µM.

Q: And the GI50 [15]?
A: The GI50 was 0.428 µM.

Q: What about the TGI [15] of the same compound?
A: The TGI was 10.1 µM.

Q: What about the GI50 [16] of the same compound?
A: The GI50 was 3.54 µM.

Q: And the TGI [16]?
A: Its TGI is 14.6 µM.

Q: And the GI50 [17]?
A: Its GI50 is 2.26 µM.

Q: What about the TGI [17] of the same compound?
A: Its TGI is 13.9 µM.

Q: And the GI50 [18]?
A: Its GI50 is 3.3 µM.

Q: What about the TGI [18] of the same compound?
A: The TGI was 13.8 µM.

Q: And the GI50 [19]?
A: The GI50 was 1.11 µM.

Q: What about the TGI [19] of the same compound?
A: The TGI was 10.6 µM.

Q: And the GI50 [20]?
A: Its GI50 is 1.46 µM.

Q: What about the TGI [20] of the same compound?
A: The TGI was 10.5 µM.

Q: What about the GI50 [21] of the same compound?
A: The GI50 was 3.06 µM.

Q: What about the TGI [21] of the same compound?
A: Its TGI is 14.9 µM.

Q: What about the GI50 [22] of the same compound?
A: The GI50 was 2.66 µM.

Q: What about the TGI [22] of the same compound?
A: Its TGI is 10.8 µM.

Q: What about the GI50 [23] of the same compound?
A: Its GI50 is 2.82 µM.

Q: What about the TGI [23] of the same compound?
A: Its TGI is 11.3 µM.

Q: What about the GI50 [24] of the same compound?
A: Its GI50 is 2.58 µM.

Q: What about the TGI [24] of the same compound?
A: Its TGI is 8.18 µM.

Q: And the GI50 [25]?
A: Its GI50 is 2.74 µM.

Q: And the TGI [25]?
A: Its TGI is 10.4 µM.

Q: What about the GI50 [26] of the same compound?
A: Its GI50 is 1.79 µM.

Q: And the TGI [26]?
A: Its TGI is 12.4 µM.

Q: What about the GI50 [27] of the same compound?
A: The GI50 was 1.4 µM.

Q: And the TGI [27]?
A: Its TGI is 2.74 µM.

Q: And the GI50 [28]?
A: Its GI50 is 2.26 µM.

Q: And the TGI [28]?
A: The TGI was 11.4 µM.

Q: And the GI50 [29]?
A: Its GI50 is 2.56 µM.

Q: And the TGI [29]?
A: The TGI was 12.6 µM.

Q: What about the GI50 [30] of the same compound?
A: Its GI50 is 1.99 µM.

Q: And the TGI [30]?
A: Its TGI is 10.8 µM.

Q: What about the GI50 [31] of the same compound?
A: Its GI50 is 1.37 µM.

Q: And the TGI [31]?
A: Its TGI is 7.88 µM.

Q: And the GI50 [32]?
A: The GI50 was 2.69 µM.

Q: What about the TGI [32] of the same compound?
A: Its TGI is 12.2 µM.

Q: And the GI50 [33]?
A: The GI50 was 0.836 µM.

Q: What about the TGI [33] of the same compound?
A: The TGI was 10.4 µM.

Q: And the GI50 [34]?
A: Its GI50 is 1.98 µM.

Q: And the TGI [34]?
A: Its TGI is 11.6 µM.

Q: What about the GI50 [35] of the same compound?
A: The GI50 was 3.11 µM.

Q: And the TGI [35]?
A: Its TGI is 15.3 µM.

Q: And the GI50 [36]?
A: Its GI50 is 2.3 µM.

Q: And the TGI [36]?
A: The TGI was 13.3 µM.

Q: And the GI50 [37]?
A: Its GI50 is 2.35 µM.

Q: What about the TGI [37] of the same compound?
A: Its TGI is 13.2 µM.

Q: And the GI50 [38]?
A: The GI50 was 2.35 µM.

Q: And the TGI [38]?
A: Its TGI is 8.54 µM.

Q: What about the GI50 [39] of the same compound?
A: Its GI50 is 0.464 µM.

Q: And the TGI [39]?
A: Its TGI is 3.05 µM.

Q: What about the GI50 [40] of the same compound?
A: The GI50 was 2.83 µM.

Q: What about the TGI [40] of the same compound?
A: The TGI was 12.6 µM.

Q: What about the GI50 [41] of the same compound?
A: The GI50 was 3.01 µM.

Q: What about the TGI [41] of the same compound?
A: Its TGI is 12.5 µM.

Q: What about the GI50 [42] of the same compound?
A: The GI50 was 2.21 µM.

Q: And the TGI [42]?
A: Its TGI is 11.7 µM.

Q: And the GI50 [43]?
A: The GI50 was 2.12 µM.

Q: And the TGI [43]?
A: Its TGI is 10.7 µM.

Q: What about the GI50 [44] of the same compound?
A: The GI50 was 0.53 µM.

Q: And the TGI [44]?
A: The TGI was 4.22 µM.

Q: What about the GI50 [45] of the same compound?
A: The GI50 was 2.15 µM.

Q: And the TGI [45]?
A: Its TGI is 11 µM.

Q: What about the GI50 [46] of the same compound?
A: Its GI50 is 0.49 µM.

Q: And the TGI [46]?
A: Its TGI is 10.4 µM.

Q: What about the GI50 [47] of the same compound?
A: Its GI50 is 2.15 µM.

Q: And the TGI [47]?
A: Its TGI is 8.88 µM.

Q: And the GI50 [48]?
A: The GI50 was 2.85 µM.

Q: What about the TGI [48] of the same compound?
A: The TGI was 11.5 µM.

Q: And the GI50 [49]?
A: The GI50 was 2.69 µM.

Q: And the TGI [49]?
A: The TGI was 10.9 µM.

Q: What about the GI50 [50] of the same compound?
A: Its GI50 is 2.02 µM.

Q: What about the TGI [50] of the same compound?
A: The TGI was 10.6 µM.

Q: What about the GI50 [51] of the same compound?
A: Its GI50 is 1.04 µM.

Q: And the TGI [51]?
A: Its TGI is 6.31 µM.

Q: What about the GI50 [52] of the same compound?
A: Its GI50 is 2.73 µM.

Q: What about the TGI [52] of the same compound?
A: The TGI was 11.9 µM.

Q: What about the GI50 [53] of the same compound?
A: The GI50 was 3.02 µM.

Q: And the TGI [53]?
A: Its TGI is 11.8 µM.

Q: And the GI50 [54]?
A: The GI50 was 3.3 µM.

Q: What about the TGI [54] of the same compound?
A: The TGI was 18.4 µM.

Q: What about the GI50 [55] of the same compound?
A: The GI50 was 1.79 µM.

Q: What about the TGI [55] of the same compound?
A: Its TGI is 5.75 µM.

Q: What about the GI50 [56] of the same compound?
A: The GI50 was 2.7 µM.

Q: And the TGI [56]?
A: Its TGI is 11.4 µM.
